The values that follow are results of earlier work, collected in patent publication US12054562B2, “Cell-permeable inhibitory agent and methods of use thereof in treatment of cognitive and mood disorders” (priority 2015, dated 2024).

Series [1] addresses T1, α5GABAA receptor (Homo sapiens, UniProt P18507+P31644).
T1 sequence (P31644 32-462): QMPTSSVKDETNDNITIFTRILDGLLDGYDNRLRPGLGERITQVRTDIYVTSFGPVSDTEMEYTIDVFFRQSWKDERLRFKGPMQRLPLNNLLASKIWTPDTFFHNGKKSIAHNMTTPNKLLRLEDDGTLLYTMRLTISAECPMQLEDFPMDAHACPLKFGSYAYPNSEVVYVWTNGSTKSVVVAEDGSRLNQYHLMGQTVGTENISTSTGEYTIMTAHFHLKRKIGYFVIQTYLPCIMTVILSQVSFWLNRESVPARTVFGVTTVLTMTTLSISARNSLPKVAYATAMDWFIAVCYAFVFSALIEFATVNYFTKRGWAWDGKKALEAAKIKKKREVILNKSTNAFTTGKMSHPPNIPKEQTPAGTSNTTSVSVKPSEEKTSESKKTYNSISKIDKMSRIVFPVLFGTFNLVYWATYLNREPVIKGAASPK
T1 sequence (P18507 40-467 limits assumed): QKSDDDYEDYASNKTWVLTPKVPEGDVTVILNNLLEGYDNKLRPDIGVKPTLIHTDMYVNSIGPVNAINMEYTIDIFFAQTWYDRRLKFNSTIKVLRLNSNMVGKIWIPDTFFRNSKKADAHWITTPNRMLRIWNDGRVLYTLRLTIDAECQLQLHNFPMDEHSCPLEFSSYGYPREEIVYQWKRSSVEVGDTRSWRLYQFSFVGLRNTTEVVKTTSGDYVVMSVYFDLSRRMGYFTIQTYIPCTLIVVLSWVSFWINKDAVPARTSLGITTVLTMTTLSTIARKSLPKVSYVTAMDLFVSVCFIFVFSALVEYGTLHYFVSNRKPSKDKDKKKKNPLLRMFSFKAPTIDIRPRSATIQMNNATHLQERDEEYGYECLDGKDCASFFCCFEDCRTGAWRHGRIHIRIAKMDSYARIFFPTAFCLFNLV
T1 sequence (P28472 26-473 partner): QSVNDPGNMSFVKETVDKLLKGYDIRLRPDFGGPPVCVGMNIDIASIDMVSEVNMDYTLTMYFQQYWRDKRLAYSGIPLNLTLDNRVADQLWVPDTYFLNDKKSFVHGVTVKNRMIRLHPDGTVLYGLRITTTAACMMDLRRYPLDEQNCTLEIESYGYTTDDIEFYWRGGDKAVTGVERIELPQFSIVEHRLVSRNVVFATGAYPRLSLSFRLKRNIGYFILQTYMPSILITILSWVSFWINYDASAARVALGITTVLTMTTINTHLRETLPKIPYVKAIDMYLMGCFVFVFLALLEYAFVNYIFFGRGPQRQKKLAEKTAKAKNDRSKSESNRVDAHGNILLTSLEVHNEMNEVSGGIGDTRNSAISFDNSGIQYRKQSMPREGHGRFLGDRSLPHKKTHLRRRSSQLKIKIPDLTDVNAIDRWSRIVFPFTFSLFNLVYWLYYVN
The following applies: cited from earlier work.

Series [2] deals with T1, α5GABAA receptor. The settings on record: cited from earlier work. This is another data set of the same source.
Series [3] addresses T2, al subunit-containing GABAA receptors (Homo sapiens, UniProt P14867+P18507).
T2 sequence (P14867 28-456): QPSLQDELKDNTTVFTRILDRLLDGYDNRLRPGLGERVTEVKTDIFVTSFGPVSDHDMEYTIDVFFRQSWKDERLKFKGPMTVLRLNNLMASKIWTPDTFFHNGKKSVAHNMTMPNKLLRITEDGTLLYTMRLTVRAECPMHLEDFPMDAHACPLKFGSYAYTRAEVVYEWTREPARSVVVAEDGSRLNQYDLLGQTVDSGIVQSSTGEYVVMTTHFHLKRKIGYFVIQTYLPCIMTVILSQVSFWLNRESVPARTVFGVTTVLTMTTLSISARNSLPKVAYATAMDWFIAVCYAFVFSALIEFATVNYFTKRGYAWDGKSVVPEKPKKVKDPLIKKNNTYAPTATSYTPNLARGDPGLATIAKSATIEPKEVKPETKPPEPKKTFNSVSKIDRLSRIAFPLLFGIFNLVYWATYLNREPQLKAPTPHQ
T2 sequence (P18507 40-467 limits assumed): T1 sequence (P18507 40-467 limits assumed)
T2 sequence (P28472 26-473 partner): T1 sequence (P28472 26-473 partner)
The following applies: at high concentrations; cited from earlier work.

The test system of the next series is healthy subjects. The settings on record: cited from earlier work.
Another series deals with patients. The following applies: cited from earlier work.

As to `CCOC(=O)c1ncn2c1[C@@H]1CCCN1C(=O)c1cc(OC)ccc1-2` [L-655,708], the “efficacy for reducing α5GABAA receptor function” value on α5GABAA receptor [1] is “relatively low efficacy”. For the same compound, the “selectivity for α5GABAA receptors” value on α5GABAA receptor [2] is listed as 30-70 fold.

As for `Cc1cc(-c2nnc3c4ccccc4c(OCc4cn(C)nn4)nn23)no1` [α5IA], the “action on al subunit-containing GABAA receptors” value in series [3] was “activates”. In addition, the ethanol-induced impaired performance entry with healthy subjects is “improves”. Besides, in the series with patients, the “reason clinical trial was stopped” value is “renal toxicity”.
